Assay results taken from patent EP0429333B1, “Process for producing oxazopyrroloquinolines, novel oxazopyrroloquinolines, and use of oxazopyrroloquinolines” (priority 1989, dated 1991).

Legend:
[1] = system: D-galactosamine-induced liver diseases; assay: Pharmacological effect on D-galactosamine-induced liver diseases; format: in vivo, SD rats; conditions: intraperitoneally twice, 1.2 ml of 0.4, 1.0, 2.0 or 3.0 mg/ml; serum 23 hours after D-galactosamine
Method: Thirty SD rats (male, 7 weeks old, body weight: about 240 g; supplied by Japan Charles River Co.) were divided to six groups (A-F) each consisting of five rats. All rats were fasted for 18 hours and 1.2 ml of solutions containing 0.4 mg/ml, 1.0 mg/ml, 2.0 mg/ml, and 3.0 mg/ml of OPQ were intraperitoneally administered to rats of groups C, D, E and F, respectively, and furthermore, after lapse of 40 minutes, OPQ in the same doses as above were intraperitoneally administered to the rats, respectively. In these cases, the OPQ was dissolved in physiological saline and administered to the rats. For the rats of group B, 1.2 ml of physiological saline was intraperitoneally administered in place of the OPQ solution.
Furthermore, after lapse of 20 minutes, 1.2 ml of a solution containing 0.2 mg/ml of D-galactosamine was subcutaneously injected to the rats of groups B-F. Neither OPQ nor D-galactosamine was administered to the rats of group A.
After lapse of 23 hours from administration of D-galactosamine, blood was collected from abdominal aorta and serum was obtained by centrifugal separation.
GPT, GOT and total amount of bilirubin were measured by clinical examination reagent (trademark: FUJI DRYCHEMSLIDE manufactured by Fuji Photo Film Co., Ltd.). The results are shown in Table 28 by average value of five rats.

T cell = assay: Test on T cell blast transformation reaction (2), compound added to spleen cell culture; format: cell-based, C3H/He mice; conditions: for Relative activity (%): Concanavalin A 1.0 µg/ml, without compound = 100
Method: Cells of spleen were obtained in the same manner as in Example 38 except that OPQ was not administered using five C3H/He mice (male, 7 weeks old, average body weight of 20 g, supplied by Japan Charles Liver Co.).
Then, the cells were suspended in RPMI medium at 4 x 10^6 cells/ml and the suspension was put in a flat bottom microplate of 96 holes. Culture was carried out in the air containing 5 % of CO2 at 37°C using 1.0 µg/ml of concanavalin A as mitogen with addition of 0.5 or 2.0 µg/ml of OPQ. After 63 hours from starting of culture, ^3H-thymidine was added at 2.5 µCi/ml and culture was carried out for further 9 hours. Thereafter, cells were gathered on a glass fiber filter by cell harvester and ^3H on the filter was measured by a liquid scintillation counter.
As control, same four cultures were conducted under respective conditions without adding concanavalin A or OPQ. Values in the table are average values of intake amount (cpm) of ^3H in culture under four same conditions. Activity acceleration effect of OPQ was not recognized when concanavalin A was not added, but activity acceleration effect of OPQ was recognized when concanavalin A was added.
(§1) In Examples 36 - 40, macrophage activity was examined according to chemotaxis of peritoneal macrophage (literature 1) and activity of T cell and that of B cell were examined according to blast transformation reaction using concanavalin A and lipopolysaccharide, (LPS) as mitogen (literature 2). Literature 1: "Function of Macrophage and Method of Measurement of Function", pages 61-65 1985), edited by Educational Committee of Japan Bacteriological Society and published from Saikon Shuppan Co.) Literature 2: "New Method of Searching of Function of Lymphocytes", pages 350-355 (1987) edited by Junichi Yada and Michio Fujiwara and published from Chugai Igaku Co.

B cell = assay: Test on B cell blast transformation reaction, spleen cells of treated mice; format: in vivo, C3H/He mice; conditions: for Relative activity (%): no administration = 100
Method: Cells of spleen of C3H/He mice to which OPQ was administered were obtained in the same manner as in Example 38.
Further, intake amount of ^3H-thymidine was examined in the same manner as in Example 38 except that 25 µg/ml or 50 µg/ml of lipopolysaccharide (LPS WE E. coli 0111, Difco) was used in place of the concanavalin A as mitogen. Values in the table are average values of intake amount (cpm) of ^3H in culture under four same conditions.
as §1

peritoneal macrophage = assay: Test on macrophage-chemotaxis after intraperitoneal administration; format: in vivo, C3H/He mice; conditions: for (2) Chemotaxis factor was present: 50 % zymosan treated serum, no administration 68; for (2) - (1) Chemotaxied macrophage: no administration 58; for Relative activity of group (%): no administration = 100; for (1) Chemotaxis factor was not present: total number of chemotaxied macrophages at 3 points, no administration 10
Method: Thirtytwo C3H/He mice (male, 7 weeks old, average body weight 20 g, supplied by Japan Charles River Co.) were divided into 4 groups (A - D) of 8 mice each.
A solution of OPQ in physiological saline of pH 7.0 was intraperitoneally administered to each mouse 7 times, namely, on the 1st day, 2nd day, 3rd day, 4th day, 5th day, 6th day and 7th day. Dosage for one administration per one mouse was as follows: That is, 0.2 ml of the solution containing 0.2 mg/ml of OPQ for group B, 0.2 ml of the solution containing 0.5 mg/ml of OPQ for group C, 0.2 ml of the solution containing 1.0 mg/ml of OPQ for group D and 0.2 ml of physiological saline for group A.
On the 8th day from starting of the experiment, the mice were anesthetized with ether and blood was drawn from carotid artery and 5 ml of cold Hanks solution was intraperitoneally injected and exudate cells for the abdominal cavity were collected. Exudate cells for the abdominal cavity of respective groups were gathered, washed three times with cold Hanks solution and suspended in RPMI medium at 5 x 10^5 cells/ml and macrophage-chemotaxis was measured. 50 % zymosan treated serum was used as chemotaxis factor and examination was conducted at three points for each sample. Number of chemotaxied macrophage was measured on microscope and 13 visual fields was examined for one point and the results are shown in Table 2. The value in the table is a total number of chemotaxied macrophages at 3 points for each sample. Preparation of Hanks solution and RPMI medium will be explained below.
Test on macrophage-chemotaxis was conducted in the same manner as in Example 36 except that hydroxymethyl OPQ was intraperitoneally administered to each mouce 3 times of the 1st day, the 2nd day and the 3rd day in the following dosage for one administration per one mouse: 0.2 ml of hydroxymethyl OPQ solution containing 0.5 mg/ml of hydroxymethyl OPQ for group B, 0.2 ml of the solution containing 1.0 mg/ml of hydroxymethyl OPQ for group C, and 0.2 ml of the solution containing 1.5 mg/ml of hydroxymethyl OPQ for group D and exudate cells for the abdominal cavity were collected on the 4th day from starting of experiment.
as §1

[2] = 2 mg/kg mouse x 7 days intraperitoneally
[3] = 5 mg/kg mouse x 7 days intraperitoneally
[4] = 10 mg/kg mouse x 7 days intraperitoneally

## O=C(O)c1cc(C(=O)O)c2c(n1)c1ncoc1c1cc(C(=O)O)[nH]c12 [OPQ, oxazopyrroloquinoline]
[1]
  GPT, GOT and total amount of bilirubin which increased by administration of D-galactosamine: all sharply decreased
T cell; 0.5 µg/ml added to culture
  Relative activity (%): 146%
T cell; 0.5 µg/ml added to culture, concanavalin 0 µg/ml, without compound 2077
  intake amount (cpm) of ^3H: 1946 cpm
T cell; 0.5 µg/ml added to culture, concanavalin 1.0 µg/ml, without compound 89091
  intake amount (cpm) of ^3H: 130775 cpm
T cell; 2.0 µg/ml added to culture
  Relative activity (%): 130%
T cell; 2.0 µg/ml added to culture, concanavalin 0 µg/ml, without compound 2077
  intake amount (cpm) of ^3H: 2031 cpm
T cell; 2.0 µg/ml added to culture, concanavalin 1.0 µg/ml, without compound 89091
  intake amount (cpm) of ^3H: 116093 cpm
B cell; 5mg/kg mouse x 7 days, Lipopolysaccharide 25 µg/ml
  Relative activity (%): 108%
B cell; 5mg/kg mouse x 7 days, Lipopolysaccharide 50 µg/ml
  Relative activity (%): 109%
B cell; 5mg/kg mouse x 7 days, Lipopolysaccharide (LPS) 0 µg/ml, no administration 6562
  intake amount (cpm) of ^3H: 9303 cpm
B cell; 5mg/kg mouse x 7 days, Lipopolysaccharide (LPS) 25 µg/ml, no administration 34557
  intake amount (cpm) of ^3H: 37434 cpm
B cell; 5mg/kg mouse x 7 days, Lipopolysaccharide (LPS) 50 µg/ml, no administration 42247
  intake amount (cpm) of ^3H: 46193 cpm
B cell; 10mg/kg mouse x 7 days, Lipopolysaccharide 25 µg/ml
  Relative activity (%): 121%
B cell; 10mg/kg mouse x 7 days, Lipopolysaccharide 50 µg/ml
  Relative activity (%): 126%
B cell; 10mg/kg mouse x 7 days, Lipopolysaccharide (LPS) 0 µg/ml, no administration 6562
  intake amount (cpm) of ^3H: 9301 cpm
B cell; 10mg/kg mouse x 7 days, Lipopolysaccharide (LPS) 25 µg/ml, no administration 34557
  intake amount (cpm) of ^3H: 41876 cpm
B cell; 10mg/kg mouse x 7 days, Lipopolysaccharide (LPS) 50 µg/ml, no administration 42247
  intake amount (cpm) of ^3H: 53267 cpm
Peritoneal macrophage; [2]
  (2) Chemotaxis factor was present: 107
  (2) - (1) Chemotaxied macrophage: 96
  Relative activity of group (%): 166%
  (1) Chemotaxis factor was not present: 11
Peritoneal macrophage; [3]
  (2) Chemotaxis factor was present: 96
  (2) - (1) Chemotaxied macrophage: 87
  Relative activity of group (%): 150%
  (1) Chemotaxis factor was not present: 9
Peritoneal macrophage; [4]
  (2) Chemotaxis factor was present: 180
  (2) - (1) Chemotaxied macrophage: 173
  Relative activity of group (%): 298%
  (1) Chemotaxis factor was not present: 7
